Experiment [1] concerns the target FABP7 (Homo sapiens (Human), UniProt O15540). In words: DAUDA, ANS or NBD-stearate fluorescence displacement binding assay, FABP7. The note with it: average ± S.E. of at least three independent experiments.
Experiment [2] deals with FABP3 (Homo sapiens (Human), UniProt P05413). In words: DAUDA, ANS or NBD-stearate fluorescence displacement binding assay, FABP3. The note with it: average ± S.E. of at least three independent experiments.
The target in experiment [3] is T1, FABP5 (Homo sapiens (Human), UniProt Q01469). In words: DAUDA, ANS or NBD-stearate fluorescence displacement binding assay, FABP5. The note with it: average ± S.E. of at least three independent experiments. As to the method:
FABP5 (30 μg), NBD-stearate (1 μM), and a competitor test compound were incubated in 30 mM Tris-HCl, 100 mM NaCl buffer (pH 7.6). […] The initial assay was run with buffer (30 mM Tris-HCl buffer), negative controls (buffer and NBD-stearate), positive controls (buffer, NBD-stearate, FABP5), and experimental wells with a variable test compound added (arachidonic acid or one of the 48 test compounds) at 10 μM. […] GraphPad Prism was also used to determine the Ki of these select competitors from the equation Ki=IC50/(1+([NBD-stearate]/Kd)). The Kd of NBD-stearate for FABP5 had been determined previously through incubating FABP5 with increasing concentrations of NBD-stearate.
Determination of Ki was derived from DAUDA or NBD-stearate displacement assays (see Table 1).

The conditions of experiment [4]: compared with morphine; cited from earlier work.
For experiment [5], the system named is formalin induced pain. The conditions noted are these: formalin induced mouse models; cited from earlier work.
In experiment [6] the target is T1, FABP5. The note with it: read-out: Kd of NBD-stearate for FABP5; cited from earlier work.

Here are results for 26 compounds from patent US10968163B2, “Alpha-truxillic acid derivatives and pharmaceutical compositions thereof” (The Research Foundation for the State University of New York, priority 2016, dated 2021).

Each structure is given as a SMILES string. Where only a bound is given, the exact number is not on record here.

Chain of FABP3 (P05413 whole entry, species assumed): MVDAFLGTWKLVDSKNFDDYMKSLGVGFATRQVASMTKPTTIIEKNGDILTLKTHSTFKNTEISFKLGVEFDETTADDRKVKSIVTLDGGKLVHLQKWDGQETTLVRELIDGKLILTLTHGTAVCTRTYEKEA
T1 sequence (Q01469 whole entry, species assumed): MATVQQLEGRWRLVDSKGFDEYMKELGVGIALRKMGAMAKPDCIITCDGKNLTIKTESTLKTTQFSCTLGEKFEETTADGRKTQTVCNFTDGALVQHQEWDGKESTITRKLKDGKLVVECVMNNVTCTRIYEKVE
Chain of FABP7 (O15540 whole entry, species assumed): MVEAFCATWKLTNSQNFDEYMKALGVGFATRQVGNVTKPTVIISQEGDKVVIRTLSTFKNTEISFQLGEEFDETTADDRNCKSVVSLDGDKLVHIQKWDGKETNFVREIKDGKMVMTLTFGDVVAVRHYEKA

For the compound `CCOCCOCCOCCn1cc(-c2cccc(OC(=O)[C@H]3[C@@H](c4ccccc4)[C@H](C(=O)O)[C@@H]3c3ccccc3)c2)nn1` [Compound 3t], the inhibition constant Ki (usually a measure of affinity in units of concentration, obtained from inhibition or displacement) in experiment [1] is 1060 ± 70 nM; in experiment [2], more than 10000 nM; in experiment [3] it was more than 10000 nM.

Consider `O=C(O)[C@H]1[C@H](c2ccccc2Cl)[C@H](C(=O)OCC2c3ccccc3-c3ccccc32)[C@H]1c1ccccc1Cl` [Compound 4k, 9-Fluorenylmethyl α-2,4-di(2-chlorophenyl)cyclobutane-1,3-dicarboxylate], for which the Ki in experiment [1] is 3540 ± 770 nM; in experiment [2] it was more than 10000 nM.

Consider `C#Cc1cccc2c(OC(=O)[C@H]3[C@@H](c4ccccc4)[C@H](C(=O)O)[C@@H]3c3ccccc3)cccc12` [Compound 3p, 5-Ethynylnaphth-1-yl α-2,4-diphenylcyclobutane-1,3-dicarboxylate], for which the Ki in experiment [1] is 1030 ± 220 nM; in experiment [2], 4940 ± 310 nM; in experiment [3] it was 3920 ± 750 nM.

With `O=C(O)[C@H]1[C@@H](c2ccccc2)[C@H](C(=O)OCC(F)(F)F)[C@@H]1c1ccccc1` [Compound 3r, 2,2,2-Trifluoroethyl α-2,4-diphenylcyclobutane-1,3-dicarboxylate], the inhibitory constant (Ki) in experiment [2] and in experiment [3] was more than 10000 nM throughout.

For the compound `O=C(O)[C@H]1[C@H](c2ccccc2)[C@H](C(=O)Oc2ccc(-c3ccccc3)cc2)[C@H]1c1ccccc1` [Compound 3i], the inhibition constant (Ki) in experiment [1] was found to be 2270 ± 30 nM; in experiment [2], 3930 ± 160 nM; in experiment [3], 2520 ± 360 nM.

In the case of `O=C(O)[C@H]1[C@H](c2ccccc2)[C@H](C(=O)Oc2cccc(-c3ccccc3)c2)[C@H]1c1ccccc1` [Compound 3h, Biphenyl-3-yl α-2,4-Diphenylcyclobutane-1,3-dicarboxylate], the Ki in experiment [1] is 740 ± 170 nM; in experiment [2] it was 9750 ± 790 nM.

Regarding `COc1ccccc1[C@H]1[C@H](C(=O)O)[C@H](c2ccccc2OC)[C@H]1C(=O)OCC1c2ccccc2-c2ccccc21` [Compound 4j, 9-Fluorenylmethyl α-2,4-di(2-methoxylphenyl)cyclobutane-1,3-dicarboxylate], the Ki in experiment [1] and in experiment [2] was more than 10000 nM throughout.

As for `O=C(O)[C@H]1[C@H](c2ccccc2)[C@H](C(=O)OCc2ccc(F)cc2)[C@H]1c1ccccc1` [Compound 3c, 4-Fluorobenzyl α-2,4-diphenylcyclobutane-1,3-dicarboxylate], the inhibitory constant (Ki) was 1650 ± 210 nM in experiment [1], more than 10000 nM in experiment [2] and 2420 ± 180 nM in experiment [3].

On to `O=C(O)[C@H]1[C@H](c2ccccc2)[C@H](C(=O)OC2Cc3ccccc3C2)[C@H]1c1ccccc1` [Compound 3m, Indan-2-yl α-2,4-diphenylcyclobutane-1,3-dicarboxylate], for which the results for the Ki in experiment [1] and in experiment [2] were 2410 ± 90 nM and more than 10000 nM, respectively.

Turning to `COc1ccc(COC(=O)[C@H]2[C@@H](c3ccccc3)[C@H](C(=O)O)[C@@H]2c2ccccc2)cc1` [Compound 3b, 4-Methoxybenzyl α-2,4-diphenylcyclobutane-1,3-dicarboxylate], the values for the inhibitory constant (Ki) in experiment [1], in experiment [2] and in experiment [3] were 1140 ± 60 nM, more than 10000 nM and 2150 ± 100 nM, respectively.

As to `O=C(O)[C@H]1[C@H](c2ccccc2)[C@H](C(=O)OCC2c3ccccc3-c3ccccc32)[C@H]1c1ccccc1` [Compound 3q, 9-Fluorenylmethyl α-2,4-diphenylcyclobutane-1,3-dicarboxylate], the inhibitory constant (Ki) in experiment [1] is 2700 ± 620 nM; in experiment [2], more than 10000 nM; in experiment [3], 2560 ± 160 nM.

Take `O=C(O)[C@H]1[C@H](c2ccccc2)[C@H](C(=O)Oc2ccccc2I)[C@H]1c1ccccc1` [Compound 3e]: the inhibitory constant (Ki) in experiment [1] turned out to be 940 ± 340 nM; in experiment [2], 1180 ± 100 nM; in experiment [3], 1340 ± 210 nM.

`O=C(O)[C@H]1[C@@H](c2ccc(O)cc2)[C@H](C(=O)Oc2cccc3ccccc23)[C@@H]1c1ccc(O)cc1` [Compound 4d] had an inhibitory constant (Ki) in experiment [3] of more than 10000 nM.

For `O=C(O)C1C(c2ccccc2)C(C(=O)OC2CCCCC2)C1c1ccccc1` (stereo not drawn) [Compound 3s, Cyclohexyl α-2,4-diphenylcyclobutane-1,3-dicarboxylate], the Ki in experiment [1] is 500 ± 110 nM; in experiment [2], more than 10000 nM.

For the compound `COc1cc([C@H]2[C@H](C(=O)O[C@@H]3C[C@@H]4[C@@H](CN(C)C[C@@H]4C)[C@@H]3C)[C@H](c3ccc(O)c(OC)c3)[C@H]2C(=O)O[C@@H]2C[C@@H]3[C@@H](CN(C)C[C@@H]3C)[C@@H]2C)ccc1O` [(−)-incarvillateine], the antinociceptive properties entry in experiment [4] is recorded as “antinociceptive properties on the same level as morphine”.

Take `COc1cc([C@H]2[C@H](C(=O)O)[C@H](c3ccc(O)c(OC)c3)[C@H]2C(=O)Oc2cccc3ccccc23)ccc1O` [Compound 4a, 1-Naphthyl α-2,4-di(3-methoxy-4-hydroxy)cyclobutane-1,3-dicarboxylate]: the figures for the Ki in experiment [1], in experiment [2] and in experiment [3] were 2120 ± 190 nM, 1060 ± 190 nM and more than 10000 nM, respectively.

In the case of `O=C(O)[C@H]1[C@H](c2c(Cl)cccc2Cl)[C@H](C(=O)OC2CCCC[C@H]2c2ccccc2)[C@H]1c1c(Cl)cccc1Cl` (stereo partly drawn) [Compound 4g, (1R,2S)-2-Phenylcyclohexyl α-2,4-di(2,6-dichlorophenyl)cyclobutane-1,3-dicarboxylate], the Ki in experiment [2] is more than 10000 nM.

For the compound `O=C(O)C1C(c2ccccc2)C(C(=O)O)C1c1ccccc1` (stereo not drawn) [α-truxillic acid, α-2,4-diphenylcyclobutene-1,3-dicarboxylic Acid], in experiment [5], the “antinociceptive effect in early and late stage pain” value was “best antinociceptive agent in both early and late stage pain”.

In the case of `O=C(O)[C@H]1[C@H](c2ccccc2Cl)[C@H](C(=O)OC2CCCC[C@H]2c2ccccc2)[C@H]1c1ccccc1Cl` (stereo partly drawn) [Compound 4f, (1R,2S)-2-Phenylcyclohexyl α-2,4-di(2-chlorophenyl)cyclobutane-1,3-dicarboxyliate], the inhibition constant (Ki) in experiment [1] and in experiment [2] was more than 10000 nM each time.

As for `O=C(O)[C@H]1[C@H](c2ccccc2)[C@H](C(=O)Oc2ccccc2-c2ccccc2O)[C@H]1c1ccccc1` [Compound 3j, 2′-HO-biphenyl-2-yl α-2,4-diphenylcyclobutane-1,3-dicarboxylate], the Ki in experiment [1] was 540 ± 180 nM; in experiment [2] it was 3520 ± 530 nM; in experiment [3], 1590 ± 430 nM.

For the compound `O=C(O)[C@H]1[C@H](c2ccccc2)[C@H](C(=O)OCc2ccc(Br)cc2)[C@H]1c1ccccc1` [Compound 3d, 4-Bromobenzyl α-2,4-diphenylcyclobutane-1,3-dicarboxylate], the Ki is 1250 ± 30 nM in experiment [1], more than 10000 nM in experiment [2] and 1580 ± 160 nM in experiment [3].

Regarding `O=C(O)C1C(c2ccccc2Br)C(C(=O)O[C@@H]2CCCC[C@H]2c2ccccc2)C1c1ccccc1Br` (stereo partly drawn) [Compound 4h, (1R,2S)-2-Phenylcyclohexyl α-2,4-di(2-bromophenyl)cyclobutane-1,3-dicarboxylate], the Ki in experiment [1] and in experiment [2] was more than 10000 nM each time.

With `COc1ccccc1C1C(C(=O)O)C(c2ccccc2OC)C1C(=O)O[C@@H]1CCCC[C@H]1c1ccccc1` (stereo partly drawn) [Compound 4e, (1R,2S)-2-Phenylcyclohexyl α-2,4-di(2-methoxylphenyl)cyclobutane-1,3-dicarboxylate], the values for the inhibitory constant (Ki) in experiment [1] and in experiment [2] were 400 ± 30 nM and 400 ± 80 nM, respectively.

As to `CCCCCCC(CCCCCCCCCCC(=O)O)N(C)c1ccc([N+](=O)[O-])c2nonc12` (centres unmarked) [NBD-stearate], the Kd (in general, the constant that tells how readily two partners part at equilibrium) in experiment [6] was 160 nM.

Consider `O=C(O)[C@H]1[C@H](c2ccccc2)[C@H](C(=O)Oc2ccc(Cl)c(Cl)c2Cl)[C@H]1c1ccccc1` [Compound 3k], for which the results for the Ki in experiment [1] and in experiment [2] were 540 ± 20 nM and 2980 ± 850 nM, respectively.

Regarding `O=C(O)[C@H]1[C@@H](c2ccccc2)[C@H](C(=O)OCc2ccccc2)[C@@H]1c1ccccc1` [Compound 3a, Benzyl α-2,4-diphenylcyclobutane-1,3-dicarboxylate], the Ki in experiment [2] is more than 10000 nM.
